Data: PMC8881610 (Nature Communications, 2022)

Assays:
GIPR [1] = biological target: T1, GIPR (Homo sapiens, UniProt P48546, W90A); test: Whole-cell binding assay, competition with 125I-GIP1-42; design: acylated tirzepatide to the full-length or modified; Flag; expressed in transfected cells; conditions: GIPR W90A, CHO-K1
T1 sequence (P48546 22-466 W90A): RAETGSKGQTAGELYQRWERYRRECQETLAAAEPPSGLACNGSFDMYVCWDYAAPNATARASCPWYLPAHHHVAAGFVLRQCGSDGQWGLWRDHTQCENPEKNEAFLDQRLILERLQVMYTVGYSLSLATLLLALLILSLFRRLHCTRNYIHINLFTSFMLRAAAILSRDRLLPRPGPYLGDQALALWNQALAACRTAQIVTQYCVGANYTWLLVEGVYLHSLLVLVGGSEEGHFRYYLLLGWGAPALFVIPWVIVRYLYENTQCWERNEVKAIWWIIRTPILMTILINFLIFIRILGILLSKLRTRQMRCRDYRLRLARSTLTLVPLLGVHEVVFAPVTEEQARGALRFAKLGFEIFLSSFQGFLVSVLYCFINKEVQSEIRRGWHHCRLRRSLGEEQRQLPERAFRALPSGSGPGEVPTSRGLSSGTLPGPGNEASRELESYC
Outline: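 Transiently transfected CHO-K1 cells expressing WT or mutant GIPR were washed in F-12 with 0.1% BSA or 0.1% casein and 33 mM HEPES, then incubated 2 h at 37 °C. After ice-cold PBS washes, cells were lysed and bound radioactivity counted (CPM).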

GLP-1R [2] = biological target: T2, GLP-1R (Homo sapiens, UniProt P43220, R190A); test: cAMP accumulation assay, GLP-1R WT, mutant or modified constructs; type: cell-based; conditions: HEK-293T, GLP-1R R190A; HEK293T
T2 construct: Flag; expressed in transfected cells; host or cells: HEK293T
Procedure: (§1) Human embryonic kidney 293 cells containing SV40 large T-antigen (HEK293T) were cultured in DMEM (Gibco) supplemented with 10% (v/v) fetal bovine serum (FBS, Gibco), 1 mM sodium pyruvate (Gibco) and 100 units/mL penicillin and 100 μg/mL streptomycin at 37 °C in 5% CO2. Chinese hamster ovary (CHO-K1) cells were cultured in F-12 (Gibco) containing 10% FBS, 100 units/mL penicillin and 100 μg/mL streptomycin at 37 °C in 5% CO2. For cAMP and receptor expression assays, HEK293T cells were seeded into 6-well cell culture plates at a density of 7 × 10^5 cells per well. After overnight incubation, cells were transfected with GIPR, GLP-1R or GCGR construct using Lipofectamine 2000 or Lipofectamine 3000 transfection reagent (Invitrogen). For whole-cell binding assay, CHO-K1 cells were seeded into 96-well fibronectin-treated cell culture plates at a density of 3 × 10^4 cells per well. After overnight incubation, cells were transfected with GIPR, GLP-1R or GCGR construct using Lipofectamine 2000 transfection reagent (Invitrogen). Following 24 h culturing, the transfected cells were ready for use. […]
(§2) For GIPR, GLP-1R and GCGR, multi-targeting agonist stimulated cAMP accumulation was measured by a LANCE Ultra cAMP kit (PerkinElmer). […] Plates were incubated at RT for 1 h and the fluorescence intensity measured at 620 nm and […] by an EnVision multilabel plate reader (PerkinElmer).

GLP-1R [3] = biological target: T3, GLP-1R (Homo sapiens, UniProt P43220, K197A); test: as above; type: cell-based; conditions: HEK-293T, GLP-1R K197A; HEK293T
T3 construct: Flag; expressed in transfected cells; host or cells: HEK293T
Procedure: as §1, §2

GIPR [4] = biological target: T4, GIPR (Homo sapiens, UniProt P48546, Y145A); test: Whole-cell binding assay, competition with 125I-GIP1-42; conditions: GIPR Y145A; CHO-K1
T4 construct: acylated tirzepatide to the full-length or modified; Flag; expressed in transfected cells
Procedure: (§3) Human embryonic kidney 293 cells containing SV40 large T-antigen (HEK293T) were cultured in DMEM (Gibco) supplemented with 10% (v/v) fetal bovine serum (FBS, Gibco), 1 mM sodium pyruvate (Gibco) and 100 units/mL penicillin and 100 μg/mL streptomycin at 37 °C in 5% CO2. Chinese hamster ovary (CHO-K1) cells were cultured in F-12 (Gibco) containing 10% FBS, 100 units/mL penicillin and 100 μg/mL streptomycin at 37 °C in 5% CO2. For cAMP and receptor expression assays, HEK293T cells were seeded into 6-well cell culture plates at a density of 7 × 10^5 cells per well. After overnight incubation, cells were transfected with GIPR, GLP-1R or GCGR construct using Lipofectamine 2000 or Lipofectamine 3000 transfection reagent (Invitrogen). For whole-cell binding assay, CHO-K1 cells were seeded into 96-well fibronectin-treated cell culture plates at a density of 3 × 10^4 cells per well. […] Following 24 h culturing, the transfected cells were ready for use.
For GIPR, CHO-K1 cells were cultured in F-12 medium with 10% FBS and seeded at a density of 30,000 cells/well in Isoplate-96 plates (PerkinElmer). […] Fifty µL of scintillation cocktail (OptiPhase SuperMix, PerkinElmer) were added and the plates were subsequently counted for radioactivity (counts per minute, CPM) in a MicroBeta^2 microplate counter (PerkinElmer).

[5] = clinical trial outcome; Drugs@FDA, ChemBL, ClinicalTrials.gov; cited from earlier work
GLP-1R [6] = biological target: T5, GLP-1R (Homo sapiens, UniProt P43220, Y152A); test: Whole-cell binding assay, competition with 125I-GLP-1(7-36)NH2; conditions: GLP-1R Y152A; CHO-K1
T5 construct: Flag; expressed in transfected cells
Procedure: as §3
(§4) For GLP-1R and GCGR, CHO-K1 cells (30,000 cells/well) were seeded into Isoplate-96 plates and incubated for 24 h at 37 °C in 5% CO2. […] After addition of scintillation cocktail (PerkinElmer), radioactivity (CPM) was counted on a MicroBeta^2 microplate counter (PerkinElmer). Data were normalized to the WT response and analyzed using three-parameter logistic equation.

GLP-1R [7] = biological target: T6, GLP-1R (Homo sapiens, UniProt P43220, R299A); test: as above; conditions: GLP-1R R299A; CHO-K1
T6 construct: Flag; expressed in transfected cells
Procedure: as §3, §4

T3 sequence (P43220 24-463 K197A): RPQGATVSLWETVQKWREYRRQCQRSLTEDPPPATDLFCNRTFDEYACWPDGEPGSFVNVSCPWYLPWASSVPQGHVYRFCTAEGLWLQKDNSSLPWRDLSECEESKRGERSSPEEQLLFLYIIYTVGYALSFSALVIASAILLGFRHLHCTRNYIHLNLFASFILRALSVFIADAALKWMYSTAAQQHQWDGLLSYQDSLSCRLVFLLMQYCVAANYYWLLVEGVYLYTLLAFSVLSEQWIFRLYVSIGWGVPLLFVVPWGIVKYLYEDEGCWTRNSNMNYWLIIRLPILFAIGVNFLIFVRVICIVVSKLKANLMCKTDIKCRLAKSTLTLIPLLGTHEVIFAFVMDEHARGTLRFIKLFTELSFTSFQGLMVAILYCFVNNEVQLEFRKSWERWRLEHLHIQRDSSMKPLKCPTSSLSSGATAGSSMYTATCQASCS
T4 sequence (P48546 22-466 Y145A): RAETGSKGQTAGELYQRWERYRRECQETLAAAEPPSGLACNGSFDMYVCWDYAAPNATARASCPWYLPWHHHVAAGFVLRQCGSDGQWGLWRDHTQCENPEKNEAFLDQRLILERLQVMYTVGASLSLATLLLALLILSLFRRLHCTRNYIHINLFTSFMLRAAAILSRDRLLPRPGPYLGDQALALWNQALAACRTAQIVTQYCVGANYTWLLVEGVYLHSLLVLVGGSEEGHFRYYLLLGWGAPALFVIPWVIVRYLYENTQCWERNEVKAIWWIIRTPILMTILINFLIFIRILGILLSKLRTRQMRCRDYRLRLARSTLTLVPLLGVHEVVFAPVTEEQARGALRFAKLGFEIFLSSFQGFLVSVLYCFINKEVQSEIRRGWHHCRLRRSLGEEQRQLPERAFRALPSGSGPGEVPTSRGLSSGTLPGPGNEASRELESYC
T2 sequence (P43220 24-463 R190A): as the sequence (P43220 24-463 K197A) above, with R167A, A174K counted along it
T6 sequence (P43220 24-463 R299A): as the sequence (P43220 24-463 K197A) above, with A174K, R276A counted along it
T5 sequence (P43220 24-463 Y152A): as the sequence (P43220 24-463 K197A) above, with Y129A, A174K counted along it

Row | SMILES | binding Span (GIPR [1]) [% WT] | IC50 (GIPR [1]; read-out: binding pIC50 (converted)) [nM] | binding pIC50 (GIPR [1]) | Emax (GLP-1R [2]) [%] | Emax (GLP-1R [3]) [%] | binding pIC50 (GIPR [4]) | Body weight [5] | Fasting plasma glucose [5] | binding Span (GLP-1R [6]) [% WT] | binding Span (GLP-1R [7]) [% WT]
1 | CCCCCCCCCCCCCCCC(=O)N[C@@H](CCC(=O)NCCCC[C@H](NC(=O)[C@H](CC(=O)O)NC(=O)[C@H](CO)NC(=O)[C@@H](NC(=O)[C@H](Cc1ccccc1)NC(=O)[C@@H](NC(=O)CNC(=O)[C@H](CCC(N)=O)NC(=O)C(C)(C)NC(=O)[C@@H](N)Cc1c[nH]cn1)[C@@H](C)O)[C@@H](C)O)C(=O)N[C@@H](CO)C(=O)N[C@@H](CCCCN)C(=O)N[C@@H](Cc1ccc(O)cc1)C(=O)N[C@@H](CC(C)C)C(=O)N[C@@H](CC(=O)O)C(=O)N[C@@H](CCC(=O)O)C(=O)N[C@@H](CCCNC(=N)N)C(=O)N[C@@H](C)C(=O)N[C@@H](C)C(=O)N[C@@H](CCC(N)=O)C(=O)N[C@@H](CC(=O)O)C(=O)N[C@@H](Cc1ccccc1)C(=O)N[C@H](C(=O)N[C@@H](CCC(N)=O)C(=O)N[C@@H](Cc1c[nH]c2ccccc12)C(=O)N[C@@H](CC(C)C)C(=O)N[C@@H](CC(C)C)C(=O)N[C@@H](CC(=O)O)C(=O)NCC(=O)NCC(=O)N1CCC[C@H]1C(=O)N[C@@H](CO)C(=O)N[C@@H](CO)C(=O)NCC(=O)N[C@@H](C)C(=O)N1CCC[C@H]1C(=O)N1CCC[C@H]1C(=O)N1CCC[C@H]1C(=O)N[C@@H](CO)C(N)=O)C(C)C)C(=O)O [Peptide 20] | 3.87 ± 1.12 | 2.69 |  |  |  |  |  |  |  | 
2 | CC[C@H](C)[C@H](NC(=O)[C@H](CC(C)C)NC(=O)[C@H](Cc1c[nH]c2ccccc12)NC(=O)[C@H](CCC(N)=O)NC(=O)[C@@H](NC(=O)[C@H](Cc1ccccc1)NC(=O)[C@H](C)NC(=O)[C@H](CCCCNC(=O)COCCOCCNC(=O)COCCOCCNC(=O)CC[C@H](NC(=O)CCCCCCCCCCCCCCCCCCC(=O)O)C(=O)O)NC(=O)[C@H](CCC(N)=O)NC(=O)[C@H](C)NC(=O)[C@@H](NC(=O)[C@H](CCCCN)NC(=O)[C@H](CC(=O)O)NC(=O)[C@H](CC(C)C)NC(=O)C(C)(C)NC(=O)[C@@H](NC(=O)[C@H](CO)NC(=O)[C@H](Cc1ccc(O)cc1)NC(=O)[C@H](CC(=O)O)NC(=O)[C@H](CO)NC(=O)[C@@H](NC(=O)[C@H](Cc1ccccc1)NC(=O)[C@@H](NC(=O)CNC(=O)[C@H](CCC(=O)O)NC(=O)C(C)(C)NC(=O)[C@@H](N)Cc1ccc(O)cc1)[C@@H](C)O)[C@@H](C)O)[C@@H](C)CC)[C@@H](C)CC)C(C)C)C(=O)N[C@@H](C)C(=O)NCC(=O)NCC(=O)N1CCC[C@H]1C(=O)N[C@@H](CO)C(=O)N[C@@H](CO)C(=O)NCC(=O)N[C@@H](C)C(=O)N1CCC[C@H]1C(=O)N1CCC[C@H]1C(=O)N1CCC[C@H]1C(=O)N[C@@H](CO)C(N)=O [Tirzepatide] |  |  | N.B. | 102 ± 2.41 | 111 ± 2.77 | N.B. | -5.30 ~ -5.70 kg or % | -60.70 ~ -74.20 mg/dL | 11.22 ± 2.82 | 8.59 ± 1.61
